Assay results reported in patent US7998985B2, “1,5-diphenyl-3-pyridinylamino-1,5-dihydropyrrolidin-2-one as CB1 receptor modulator” (Eli Lilly and Company, priority 2006, dated 2011).

How the values were obtained:
[1] = system: alcohol-preferring (P) rats; assay: 12-hour ethanol consumption in alcohol-preferring rats (P rats); assay type: in vivo, rat; conditions: female P rats, 15% (v/v) ethanol, continuous free access; Example 2 given p.o.
Excerpt: Evaluate Example 2 for its ability to reduce consumption of ethanol in rats selectively bred for high oral ethanol intake (P rats). In addition, study the effects of Example 2 under conditions in which effects of the compound on motivation or the control of behavior by ethanol could be assessed.
Methods: Study the effects of Example 2 on female, alcohol-preferring (P) rats on alcohol consumption under a continuous free access paradigm. For comparative purposes test the standard opioid antagonist naltrexone. Monitor voluntary consumption of 15% (v/v) ethanol. Suspend Example 2 in vehicle (1% CMC, 0.5% SLS, 0.08% povidone, 0.05% Dow Corning antifoam 1510 US) and give p.o. 3 hours prior to the onset of the dark cycle. In addition, measure locomotor activity via infrared sensor.

Bioavailability, dog = conditions: in vivo
Excerpt: (§1) Methods for accessing bioavailability are well appreciated in the art. One such reference is Medicinal Research Reviews Vol. 21 No. 5 382-396 (2001).

Bioavailability, rat = conditions: in vivo
Excerpt: as §1

NIH male Swiss mice = assay: Forced Swim Test (FST); assay type: in vivo, mouse; conditions: 90 minute pre-treatment, lowest dose with significant decrease in immobility time
Description: Receive NIH male Swiss mice (Harlan Sprague-Dawley, weight 20-25 g) 7 to 10 days prior to testing. House 12 mice per cage. Test only animals that weigh 25-30 g. On the day of testing, bring animals to the testing room at least 1 hour prior to dosing. When dosing starts, dose at 6-8 minute intervals between each dose with each mouse receiving either Administer vehicle (1% CMC, 0.5% SLS, 0.08% povidone, 0.05% antifoam) or Example 2, p.o. Next, place mice in a clean cage (4 mice per cage). After 90 minutes, start the test following a 90 minute pre-treatment with Example 2 or vehicle.
Mice FST: Place NIH-Swiss mice in clear plastic cylinders (diameter: 10 cm; height: 25 cm) filled to 6 cm with 22-25° C. water for six minutes. Record the duration of immobility during the last 4 minutes of the six-minute trial. A mouse is regarded as immobile when floating motionless or making only those movements necessary to keep its head above the water. Analyze data by ANOVA with a post-hoc Dunnett's test (alpha=0.05; JMP). Record the minimum effective dose (MED) as the lowest dose of compound at which statistically significant decrease in immobility time is observed versus a vehicle control.

human CB2 receptor = biological target: T1, human CB2 receptor (Homo sapiens, UniProt P34972); assay: Antibody-capture SPA GTP-γ-35S binding, antagonist/inverse agonist mode, human CB2 (Sf9 membranes); assay type: biochemical; conditions: Table 3
T1 construct: purchased Applied Cell Sciences, Gaithersburg, Md; PerkinElmer Life Sciences, Boston, Mass; host or cells: Sf9 insect cells (recombinant expression), membranes

hCB1 = hCB1 (Homo sapiens, UniProt P21554); assay: hCB1 SPA GTPγ35S Sf9 membranes, antagonist mode (Table 3); assay type: biochemical; design: purchased Applied Cell Sciences, Gaithersburg, Md; PerkinElmer Life Sciences, Boston, Mass; host or cells: Sf9 insect cells (recombinant expression), membranes; conditions: hCB1 SPA GTPγ35S Sf9 Mem 22.7 ug protein/well Antagonist; read-out: Inverse Agonist Potency CB1 (Kb)
Chain of hCB1 (P21554 whole entry): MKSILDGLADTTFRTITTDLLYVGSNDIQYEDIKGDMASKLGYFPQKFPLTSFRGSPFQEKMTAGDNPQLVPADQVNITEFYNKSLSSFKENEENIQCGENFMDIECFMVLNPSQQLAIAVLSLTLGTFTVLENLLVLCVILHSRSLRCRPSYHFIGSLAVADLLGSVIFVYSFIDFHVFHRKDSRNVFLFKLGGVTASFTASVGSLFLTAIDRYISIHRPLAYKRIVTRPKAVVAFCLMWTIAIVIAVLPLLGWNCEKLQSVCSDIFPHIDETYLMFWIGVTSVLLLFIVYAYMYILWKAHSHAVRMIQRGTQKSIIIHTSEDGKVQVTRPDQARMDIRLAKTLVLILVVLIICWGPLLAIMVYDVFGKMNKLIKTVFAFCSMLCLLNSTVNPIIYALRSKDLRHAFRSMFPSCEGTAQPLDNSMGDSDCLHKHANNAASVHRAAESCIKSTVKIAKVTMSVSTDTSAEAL

T1 sequence (P34972 whole entry): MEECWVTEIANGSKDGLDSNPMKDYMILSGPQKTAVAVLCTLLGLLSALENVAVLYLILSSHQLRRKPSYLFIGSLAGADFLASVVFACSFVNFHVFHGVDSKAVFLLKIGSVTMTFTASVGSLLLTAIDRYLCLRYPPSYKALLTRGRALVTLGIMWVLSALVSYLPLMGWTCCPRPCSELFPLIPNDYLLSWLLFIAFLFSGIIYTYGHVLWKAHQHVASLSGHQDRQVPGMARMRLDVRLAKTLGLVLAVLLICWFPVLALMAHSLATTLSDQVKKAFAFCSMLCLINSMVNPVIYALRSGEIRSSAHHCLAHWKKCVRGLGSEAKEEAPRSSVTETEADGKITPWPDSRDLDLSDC

Structure (SMILES): O=C1CC[C@@]2(O)[C@H]3Cc4ccc(O)c5c4[C@@]2(CCN3CC2CC2)[C@H]1O5 [Naltrexone, naltrexone, reference compound]
- consumption of ethanol [1]: at higher doses, was also able to reduce ethanol intake

Structure (SMILES): CC(C)(N[C@@H]1C[C@H](c2cccc(OC(F)(F)F)c2)N(c2ccc(C(F)(F)F)cc2)C1=O)c1ccc(C(F)(F)F)nc1.Cc1ccc(S(=O)(=O)O)cc1 [drawing 21]
- bioavailability (Bioavailability, dog): 60%
- bioavailability (Bioavailability, rat): 65%
- FST (MED mg/kg p.o.) (NIH male Swiss mice): 1 mg/kg
- Inverse Agonist Potency CB2 (Kb, nM) (human CB2 receptor): No measurable activity

Structure (SMILES): CC(C)(N[C@@H]1C[C@H](c2cccc(OC(F)(F)F)c2)N(c2ccc(C(F)(F)F)cc2)C1=O)c1ccc(C(F)(F)F)nc1.Cl [drawing 22]
- Inverse Agonist Potency CB2 (Kb, nM) (human CB2 receptor): No measurable activity

Structure (SMILES): CC(C)(N[C@H]1C[C@H](c2cccc(OC(F)(F)F)c2)N(c2ccc(C(F)(F)F)cc2)C1=O)c1ccc(C(F)(F)F)nc1.Cc1ccc(S(=O)(=O)O)cc1 [drawing 23]
- Kb (hCB1): 3 nM
- Inverse Agonist Potency CB2 (Kb, nM) (human CB2 receptor): No measurable activity

Structure (SMILES): CC(C)(N[C@H]1C[C@H](c2cccc(OC(F)(F)F)c2)N(c2ccc(C(F)(F)F)cc2)C1=O)c1ccc(C(F)(F)F)nc1.Cl [drawing 24]
- Kb (hCB1): 8.8 nM
- Inverse Agonist Potency CB2 (Kb, nM) (human CB2 receptor): No measurable activity
